From patent publication US20250152577A1, “Pharmaceutical Composition of Ethidium Bromide and Use in Treating Cancer” (RUIJIN HOSPITAL, SHANGHAI JIAOTONG UNIVERSITY SCHOOL OF …, priority 2022, published 2025)

Test system: AOM+DSS-induced colorectal tumor
Assay: AOM+DSS-induced spontaneous colorectal cancer mouse model
Format: in vivo, mice
Conditions: zalcitabine 33 mg/Kg alone, one month
Description: The classical intraperitoneal injection of AOM and the spontaneous colorectal cancer formation by three rounds of DSS were utilized to construct a tumor mouse model. Mice were treated with ethidium bromide (500 mg/L dissolved in drinking water) one week after completion of the construction. […] Mice were sacrificed and their colorectum was taken for photographic observation and fixed staining.
To further verify the above results, we then expanded the sample size to about 10-16 mice per group and still used the above AOM+DSS protocol to induce spontaneous colorectal cancer formation in mice. […] Meanwhile, since it has been reported that zalcitabine (ddC) can effectively impair the function of mitochondria (mainly the replication of mtDNA, similar to ethidium bromide), we added the experimental group of zalcitabine (33 mg/Kg) as a control.
In addition, in order to investigate in what way ethidium bromide clears tumors in mice, we also tested cell proliferation (FIGS. 8A and B) and apoptosis (FIG. 8C-F) in tumor tissues and normal tissues surrounding the tumors in different treatment groups. Among them, cell proliferation was detected by immunohistochemistry of Ki67-positive cells, and apoptosis was detected by immunofluorescence staining of cleaved Caspase3.
To further verify whether ethidium bromide is still effective against already existing larger tumors (advanced colorectal cancer), we set aside a group of control mice (started administration 5 weeks after the end of induction, equivalent to the control group of mice described above) to administer them by gavage (20 mg/Kg per day).
We investigated the mechanism of ethidium bromide-induced apoptosis in tumor cells. First, tumor tissues treated with ethidium bromide (mice shown in FIGS. 7 and 8, treated for 4 weeks at 20 mg/Kg per day) were subjected to SDS-Loading buffer boiling lysis and tested for associated signaling pathways by Western blotting.

Nc1ccn([C@H]2CC[C@@H](CO)O2)c(=O)n1 [zalcitabine, reference compound]
effect on spontaneous colorectal tumors: had no effect
